Reference: article PMC7031403, “A molecular switch regulating transcriptional repression and activation of PPARγ” (Nature Communications, 2020)

Assays:
Test in all cases: Fluorescence polarization peptide interaction assay, NCoR ID2 peptide affinity, apo- or T0070907-bound wild type or mutant PPARγ LBD
Assay type in all cases: binding
[1] = target: T1, PPARγ LBD (wild type or mutant) (Homo sapiens, UniProt P37231, D503A); details: apo (DMSO) D475A PPARγ LBD; one site-total binding fit; read-out: NCoR ID2 peptide affinity, mean of fit (log scale) (converted)
T1 construct: made in house; host or cells: Escherichia coli BL21(DE3)
Method: (§1) Plates were incubated at 25 °C for 1 h, and fluorescence polarization was measured on a BioTek Synergy Neo multimode plate reader at […] wavelengths. Data were plotted using GraphPad Prism as fluorescence polarization signal in millipolarization units vs. protein concentration and fit to a one site—total binding equation.

[2] = target: T2, PPARγ LBD (wild type or mutant) (Homo sapiens, UniProt P37231, D503R); details: apo (DMSO) D475R PPARγ LBD; one site-total binding fit; read-out: NCoR ID2 peptide affinity, mean of fit (log scale) (converted)
T2 construct: made in house; host or cells: Escherichia coli BL21(DE3)
Method: as §1

[3] = target: T3, PPARγ LBD (wild type or mutant) (Homo sapiens, UniProt P37231, E499A); details: apo (DMSO) E471A PPARγ LBD; one site-total binding fit; read-out: NCoR ID2 peptide affinity, mean of fit (log scale) (converted)
T3 construct: made in house; host or cells: Escherichia coli BL21(DE3)
Method: as §1

[4] = target: T4, PPARγ LBD (wild type or mutant) (Homo sapiens, UniProt P37231, E499R); details: apo (DMSO) E471R PPARγ LBD; one site-total binding fit; read-out: NCoR ID2 peptide affinity, mean of fit (log scale) (converted)
T4 construct: made in house; host or cells: Escherichia coli BL21(DE3)
Method: as §1

[5] = target: T5, PPARγ LBD (wild type or mutant) (Homo sapiens, UniProt P37231, H351A); details: apo (DMSO) H323A PPARγ LBD; one site-total binding fit; read-out: NCoR ID2 peptide affinity, mean of fit (log scale) (converted)
T5 construct: made in house; host or cells: Escherichia coli BL21(DE3)
Method: as §1

[6] = target: T6, PPARγ LBD (wild type or mutant) (Homo sapiens, UniProt P37231, H477A); details: apo (DMSO) H449A PPARγ LBD; one site-total binding fit; read-out: NCoR ID2 peptide affinity, mean of fit (log scale) (converted)
T6 construct: made in house; host or cells: Escherichia coli BL21(DE3)
Method: as §1

[7] = target: T7, PPARγ LBD (wild type or mutant) (Homo sapiens, UniProt P37231, K329A); details: apo (DMSO) K301A PPARγ LBD; one site-total binding fit; read-out: NCoR ID2 peptide affinity, mean of fit (log scale) (converted)
T7 construct: made in house; host or cells: Escherichia coli BL21(DE3)
Method: as §1

[8] = target: T8, PPARγ LBD (wild type or mutant) (Homo sapiens, UniProt P37231, K347A); details: apo (DMSO) K319A PPARγ LBD; one site-total binding fit; read-out: NCoR ID2 peptide affinity, mean of fit (log scale) (converted)
T8 construct: made in house; host or cells: Escherichia coli BL21(DE3)
Method: as §1

[9] = target: T9, PPARγ LBD (wild type or mutant) (Homo sapiens, UniProt P37231, K395A); details: apo (DMSO) K367A PPARγ LBD; one site-total binding fit; read-out: NCoR ID2 peptide affinity, mean of fit (log scale) (converted)
T9 construct: made in house; host or cells: Escherichia coli BL21(DE3)
Method: as §1

[10] = target: T10, PPARγ LBD (wild type or mutant) (Homo sapiens, UniProt P37231, M392A); details: apo (DMSO) M364A PPARγ LBD; one site-total binding fit; read-out: NCoR ID2 peptide affinity, mean of fit (log scale) (converted)
T10 construct: made in house; host or cells: Escherichia coli BL21(DE3)
Method: as §1

[11] = target: T11, PPARγ LBD (wild type or mutant) (Homo sapiens, UniProt P37231, N340A); details: apo (DMSO) N312A PPARγ LBD; one site-total binding fit; read-out: NCoR ID2 peptide affinity, mean of fit (log scale) (converted)
T11 construct: made in house; host or cells: Escherichia coli BL21(DE3)
Method: as §1

[12] = target: T12, PPARγ LBD (wild type or mutant) (Homo sapiens, UniProt P37231, Q314A); details: apo (DMSO) Q286A PPARγ LBD; one site-total binding fit; read-out: NCoR ID2 peptide affinity, mean of fit (log scale) (converted)
T12 construct: made in house; host or cells: Escherichia coli BL21(DE3)
Method: as §1

[13] = target: T13, PPARγ LBD (wild type or mutant) (Homo sapiens, UniProt P37231, Q322A); details: apo (DMSO) Q294A PPARγ LBD; one site-total binding fit; read-out: NCoR ID2 peptide affinity, mean of fit (log scale) (converted)
T13 construct: made in house; host or cells: Escherichia coli BL21(DE3)
Method: as §1

[14] = target: T14, PPARγ LBD (wild type or mutant) (Homo sapiens, UniProt P37231, Q342A); details: apo (DMSO) Q314A PPARγ LBD; one site-total binding fit; read-out: NCoR ID2 peptide affinity, mean of fit (log scale) (converted)
T14 construct: made in house; host or cells: Escherichia coli BL21(DE3)
Method: as §1

[15] = target: T15, PPARγ LBD (wild type or mutant) (Homo sapiens, UniProt P37231, R308A); details: apo (DMSO) R280A PPARγ LBD; one site-total binding fit; read-out: NCoR ID2 peptide affinity, mean of fit (log scale) (converted)
T15 construct: made in house; host or cells: Escherichia coli BL21(DE3)
Method: as §1

[16] = target: T16, PPARγ LBD (wild type or mutant) (Homo sapiens, UniProt P37231, R316A); details: apo (DMSO) R288A PPARγ LBD; one site-total binding fit; read-out: NCoR ID2 peptide affinity, mean of fit (log scale) (converted)
T16 construct: made in house; host or cells: Escherichia coli BL21(DE3)
Method: as §1

[17] = target: T17, PPARγ LBD (wild type or mutant) (Homo sapiens, UniProt P37231, Y355A); details: apo (DMSO) Y327A PPARγ LBD; one site-total binding fit; read-out: NCoR ID2 peptide affinity, mean of fit (log scale) (converted)
T17 construct: made in house; host or cells: Escherichia coli BL21(DE3)
Method: as §1

[18] = target: T18, PPARγ LBD (wild type or mutant) (Homo sapiens, UniProt P37231, Y505A); details: apo (DMSO) Y477A PPARγ LBD; one site-total binding fit; read-out: NCoR ID2 peptide affinity, mean of fit (log scale) (converted)
T18 construct: made in house; host or cells: Escherichia coli BL21(DE3)
Method: as §1

T7 sequence (P37231 231-505 K329A): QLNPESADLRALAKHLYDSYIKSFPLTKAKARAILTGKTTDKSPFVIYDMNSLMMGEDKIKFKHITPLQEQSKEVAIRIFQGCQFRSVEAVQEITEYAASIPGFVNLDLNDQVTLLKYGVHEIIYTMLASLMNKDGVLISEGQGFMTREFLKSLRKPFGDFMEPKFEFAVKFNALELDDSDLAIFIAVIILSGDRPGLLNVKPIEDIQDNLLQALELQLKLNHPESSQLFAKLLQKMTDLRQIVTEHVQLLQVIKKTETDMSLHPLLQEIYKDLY
T7 sequence (O75376 2256-2278 partner): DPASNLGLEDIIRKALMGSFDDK
T12 sequence (P37231 231-505 Q314A): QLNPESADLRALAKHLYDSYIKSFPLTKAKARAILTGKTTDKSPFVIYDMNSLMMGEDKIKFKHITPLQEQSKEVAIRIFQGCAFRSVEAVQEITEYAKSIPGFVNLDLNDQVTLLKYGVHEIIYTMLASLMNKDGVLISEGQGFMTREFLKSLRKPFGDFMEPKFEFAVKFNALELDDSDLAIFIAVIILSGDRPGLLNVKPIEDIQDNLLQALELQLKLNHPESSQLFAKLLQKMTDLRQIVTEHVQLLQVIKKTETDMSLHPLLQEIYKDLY
T9 sequence (P37231 231-505 K395A): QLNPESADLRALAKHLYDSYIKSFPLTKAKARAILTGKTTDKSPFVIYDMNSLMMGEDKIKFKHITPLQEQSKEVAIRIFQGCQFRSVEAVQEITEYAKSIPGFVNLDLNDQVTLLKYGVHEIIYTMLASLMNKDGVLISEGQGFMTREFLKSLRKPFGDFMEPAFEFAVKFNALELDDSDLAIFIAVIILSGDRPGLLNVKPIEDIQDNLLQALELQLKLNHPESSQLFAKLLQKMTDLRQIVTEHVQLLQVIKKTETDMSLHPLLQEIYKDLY
T2 sequence (P37231 231-505 D503R): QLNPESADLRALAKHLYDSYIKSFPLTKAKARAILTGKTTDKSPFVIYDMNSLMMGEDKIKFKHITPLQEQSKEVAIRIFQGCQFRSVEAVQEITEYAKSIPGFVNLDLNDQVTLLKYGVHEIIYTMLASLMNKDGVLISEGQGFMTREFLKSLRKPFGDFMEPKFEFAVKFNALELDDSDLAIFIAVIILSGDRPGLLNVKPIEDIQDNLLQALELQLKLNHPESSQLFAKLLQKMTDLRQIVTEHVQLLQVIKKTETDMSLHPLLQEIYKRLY
T14 sequence (P37231 231-505 Q342A): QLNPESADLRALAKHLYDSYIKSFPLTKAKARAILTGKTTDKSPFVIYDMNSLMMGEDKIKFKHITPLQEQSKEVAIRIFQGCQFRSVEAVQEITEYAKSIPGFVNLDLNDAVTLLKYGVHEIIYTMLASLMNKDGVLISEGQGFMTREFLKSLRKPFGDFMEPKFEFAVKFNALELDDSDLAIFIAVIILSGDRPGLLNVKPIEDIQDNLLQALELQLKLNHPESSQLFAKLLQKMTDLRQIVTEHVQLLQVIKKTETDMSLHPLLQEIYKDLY
T17 sequence (P37231 231-505 Y355A): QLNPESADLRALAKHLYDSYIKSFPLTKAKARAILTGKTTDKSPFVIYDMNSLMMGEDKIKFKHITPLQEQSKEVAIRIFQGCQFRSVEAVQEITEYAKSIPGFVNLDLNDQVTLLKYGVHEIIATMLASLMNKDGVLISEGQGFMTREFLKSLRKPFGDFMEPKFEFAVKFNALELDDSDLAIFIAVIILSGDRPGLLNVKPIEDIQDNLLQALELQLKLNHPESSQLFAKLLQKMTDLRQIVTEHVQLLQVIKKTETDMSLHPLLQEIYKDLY
T16 sequence (P37231 231-505 R316A): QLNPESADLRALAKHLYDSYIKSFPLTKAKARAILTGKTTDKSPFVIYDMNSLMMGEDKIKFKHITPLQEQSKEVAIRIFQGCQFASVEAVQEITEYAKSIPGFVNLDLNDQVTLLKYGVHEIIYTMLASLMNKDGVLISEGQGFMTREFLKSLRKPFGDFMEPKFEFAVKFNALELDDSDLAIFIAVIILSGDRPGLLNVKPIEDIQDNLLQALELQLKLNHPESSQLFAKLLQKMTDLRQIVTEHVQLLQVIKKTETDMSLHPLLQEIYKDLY
T1 sequence (P37231 231-505 D503A): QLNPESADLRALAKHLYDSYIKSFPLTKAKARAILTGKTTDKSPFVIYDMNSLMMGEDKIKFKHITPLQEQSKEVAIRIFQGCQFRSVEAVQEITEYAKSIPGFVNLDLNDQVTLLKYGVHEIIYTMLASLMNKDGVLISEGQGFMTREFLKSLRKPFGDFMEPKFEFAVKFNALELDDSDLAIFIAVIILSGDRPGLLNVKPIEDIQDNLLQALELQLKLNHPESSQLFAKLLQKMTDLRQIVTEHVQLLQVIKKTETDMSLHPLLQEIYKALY
T6 sequence (P37231 231-505 H477A): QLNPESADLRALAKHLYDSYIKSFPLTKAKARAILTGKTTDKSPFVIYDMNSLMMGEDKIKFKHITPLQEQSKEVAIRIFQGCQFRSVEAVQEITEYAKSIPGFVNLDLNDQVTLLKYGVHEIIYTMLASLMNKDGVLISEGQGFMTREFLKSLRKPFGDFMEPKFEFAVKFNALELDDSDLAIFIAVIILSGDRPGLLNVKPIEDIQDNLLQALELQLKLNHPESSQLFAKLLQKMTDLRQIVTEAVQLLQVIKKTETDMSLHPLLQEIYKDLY
T4 sequence (P37231 231-505 E499R): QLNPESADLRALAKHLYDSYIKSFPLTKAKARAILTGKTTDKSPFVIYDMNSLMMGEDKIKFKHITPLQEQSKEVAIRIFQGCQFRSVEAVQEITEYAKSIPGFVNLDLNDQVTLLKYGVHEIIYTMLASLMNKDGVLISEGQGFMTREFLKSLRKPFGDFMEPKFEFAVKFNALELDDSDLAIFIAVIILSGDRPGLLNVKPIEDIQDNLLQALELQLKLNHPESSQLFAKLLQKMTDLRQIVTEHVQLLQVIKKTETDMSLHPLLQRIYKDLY
T18 sequence (P37231 231-505 Y505A): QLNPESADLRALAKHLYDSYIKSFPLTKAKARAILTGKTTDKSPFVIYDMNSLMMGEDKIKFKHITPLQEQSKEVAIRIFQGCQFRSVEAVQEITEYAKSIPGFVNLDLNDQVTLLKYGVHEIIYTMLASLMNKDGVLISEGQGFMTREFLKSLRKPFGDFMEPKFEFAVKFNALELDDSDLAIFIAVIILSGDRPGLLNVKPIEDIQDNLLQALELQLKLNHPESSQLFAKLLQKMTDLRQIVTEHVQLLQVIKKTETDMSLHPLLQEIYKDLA
T13 sequence (P37231 231-505 Q322A): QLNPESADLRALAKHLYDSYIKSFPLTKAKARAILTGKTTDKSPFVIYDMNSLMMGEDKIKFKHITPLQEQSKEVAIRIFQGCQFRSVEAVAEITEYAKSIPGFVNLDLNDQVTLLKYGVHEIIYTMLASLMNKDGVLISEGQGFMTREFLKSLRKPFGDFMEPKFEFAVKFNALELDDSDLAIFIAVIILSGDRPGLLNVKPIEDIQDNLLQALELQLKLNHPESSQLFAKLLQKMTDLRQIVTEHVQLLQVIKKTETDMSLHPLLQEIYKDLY
T10 sequence (P37231 231-505 M392A): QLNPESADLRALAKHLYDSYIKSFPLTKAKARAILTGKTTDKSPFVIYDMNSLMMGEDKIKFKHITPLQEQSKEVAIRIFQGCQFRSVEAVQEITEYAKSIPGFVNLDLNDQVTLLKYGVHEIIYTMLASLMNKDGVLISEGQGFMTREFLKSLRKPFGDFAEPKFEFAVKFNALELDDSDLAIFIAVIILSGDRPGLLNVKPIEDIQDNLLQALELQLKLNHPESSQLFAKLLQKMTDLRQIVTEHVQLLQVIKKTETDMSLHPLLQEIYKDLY
T3 sequence (P37231 231-505 E499A): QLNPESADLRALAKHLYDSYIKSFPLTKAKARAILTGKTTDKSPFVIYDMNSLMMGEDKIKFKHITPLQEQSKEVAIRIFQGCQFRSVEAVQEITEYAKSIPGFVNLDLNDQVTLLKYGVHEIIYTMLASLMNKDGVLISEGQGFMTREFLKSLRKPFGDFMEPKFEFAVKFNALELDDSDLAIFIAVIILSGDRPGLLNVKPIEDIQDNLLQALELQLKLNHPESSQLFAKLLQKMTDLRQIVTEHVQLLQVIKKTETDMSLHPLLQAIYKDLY
T11 sequence (P37231 231-505 N340A): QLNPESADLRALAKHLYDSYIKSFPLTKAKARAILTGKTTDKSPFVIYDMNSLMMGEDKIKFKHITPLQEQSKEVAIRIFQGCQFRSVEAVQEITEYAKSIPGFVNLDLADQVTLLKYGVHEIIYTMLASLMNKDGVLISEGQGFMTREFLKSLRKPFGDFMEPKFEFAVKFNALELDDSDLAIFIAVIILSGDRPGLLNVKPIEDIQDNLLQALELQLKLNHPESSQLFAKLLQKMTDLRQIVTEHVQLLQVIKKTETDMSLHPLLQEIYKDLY

Kd [1]: 621 nM | Kd [2]: 522 nM | Kd [3]: 525 nM | Kd [4]: 348 nM | Kd [5]: 621 nM | Kd [6]: 1490 nM | Kd [7]: 4930 nM | Kd [8]: 2580 nM | Kd [9]: 1080 nM | Kd [10]: 38700 nM | Kd [11]: 1410 nM | Kd [12]: 807 nM | Kd [13]: 2420 nM | Kd [14]: 867 nM | Kd [15]: 766 nM | Kd [16]: 1200 nM | Kd [17]: 590 nM | Kd [18]: 822 nM
Structure (SMILES): CC[C@H](C)[C@H](NC(=O)[C@H](CC(=O)O)NC(=O)[C@H](CCC(=O)O)NC(=O)[C@H](CC(C)C)NC(=O)CNC(=O)[C@H](CC(C)C)NC(=O)[C@H](CC(N)=O)NC(=O)[C@H](CO)NC(=O)[C@H](C)NC(=O)[C@@H]1CCCN1C(=O)[C@H](CC(=O)O)NC(=O)CCCCCNC(=S)Nc1ccc2c(c1)C(=O)OC21c2ccc(O)cc2Oc2cc(O)ccc21)C(=O)N[C@H](C(=O)N[C@@H](CCCNC(=N)N)C(=O)N[C@@H](CCCCN)C(=O)N[C@@H](C)C(=O)N[C@@H](CC(C)C)C(=O)N[C@@H](CCSC)C(=O)NCC(=O)N[C@@H](CO)C(=O)N[C@@H](Cc1ccccc1)C(=O)N[C@@H](CC(=O)O)C(=O)N[C@@H](CC(=O)O)C(=O)N[C@@H](CCCCN)C(N)=O)[C@@H](C)CC [NCoR-D2]
